In patent US10316021B2, “Heteroarylphenoxy benzamide kappa opioid ligands” (Pfizer Inc., priority 2016, dated 2019):
Entries after “also recorded” stand apart in the source; their conditions may differ. Where two headings read alike, the source gives them in different places.

Legend:
[1] = biological target: T1, human kappa opioid receptor (hKOR) (Homo sapiens, UniProt P41145); assay: Kappa radioligand binding assay ([3H]diprenorphine, CHO cell membranes); conditions: for Selectivity hMOR/hKOR: selectivity ratio calculated by dividing the hMOR Ki by the hKOR Ki
T1 construct: expressed in transfected cells; host or cells: CHO cells
Protocol: (§1) Kappa and Mu Radioligand Binding Assay:
(§2) Binding assays on membranes from CHO cells expressing human kappa or mu opioid receptors were performed according to standard procedures. Frozen cell paste was homogenized in 50 mM Tris HCl buffer (pH 7.4 @ 4 degrees C.) containing 2.0 mM MgCl2 using a Polytron and spun in a centrifuge at 40,000 g for ten minutes. The final pellet was resuspended in assay buffer (50 mM Tris HCl buffer, pH 7.4, containing 1 mM EDTA, 5 mM MgCl2). Incubations were initiated by the addition of membranes to 96-well plates containing test drugs and [^3H]diprenorphine (0.6 nM final concentration for kappa opioid receptor and 0.5 nM final concentration for mu) in a final volume of 250 μl. Non-specific binding was determined by radioligand binding in the presence of a saturating concentration of naltrexone (10 μM). After a one hour incubation period at room temperature, assay samples were rapidly filtered through PEI coated, GF/B fired Unifilter plates (PerkinElmer) and rinsed with ice-cold 50 mM Tris buffer (pH 7.4). Membrane bound [^3H]diprenorphine levels were determined by liquid scintillation counting of the filterplates in Ecolume scintillation fluid. The IC50 value (concentration at which 50% inhibition of specific binding occurs) was calculated using a logistic 4 parameter fit model of the concentration-response data. Ki values were calculated according to the Cheng Prusoff equation, Ki=IC50/(1+(L/Kd)), where L is the concentration of the radioligand used in the experiment and the Kd value is the dissociation constant for the radioligand (determined previously by saturation analysis).

[2] = biological target: T2, human mu opioid receptor (hMOR) (Homo sapiens, UniProt P35372); assay: Mu radioligand binding assay ([3H]diprenorphine, CHO cell membranes)
T2 construct: expressed in transfected cells; host or cells: CHO cells
Protocol: as §1
as §2, with “The IC50 value (concentration at which 50% inhibition of specific binding occurs) was calculated using a logistic 4 parameter fit model of the concentration-response data.” left out

[3] = radioligand binding, [3H]diprenorphine, read-out: hKOR Ki
[4] = radioligand binding, [3H]diprenorphine, read-out: hMOR Ki
[5] = Table 19, geometric mean of 2-6 determinations unless otherwise indicated (Example 3: >=7), read-out: hKOR binding assay Ki
[6] = Table 20, radioligand binding, read-out: hKOR binding assay Ki
[7] = Table 19, geometric mean of 2-6 determinations unless otherwise indicated (Example 3: >=7), read-out: hMOR binding assay Ki
[8] = Table 20, radioligand binding, read-out: hMOR binding assay Ki

T2 sequence (P35372 whole entry): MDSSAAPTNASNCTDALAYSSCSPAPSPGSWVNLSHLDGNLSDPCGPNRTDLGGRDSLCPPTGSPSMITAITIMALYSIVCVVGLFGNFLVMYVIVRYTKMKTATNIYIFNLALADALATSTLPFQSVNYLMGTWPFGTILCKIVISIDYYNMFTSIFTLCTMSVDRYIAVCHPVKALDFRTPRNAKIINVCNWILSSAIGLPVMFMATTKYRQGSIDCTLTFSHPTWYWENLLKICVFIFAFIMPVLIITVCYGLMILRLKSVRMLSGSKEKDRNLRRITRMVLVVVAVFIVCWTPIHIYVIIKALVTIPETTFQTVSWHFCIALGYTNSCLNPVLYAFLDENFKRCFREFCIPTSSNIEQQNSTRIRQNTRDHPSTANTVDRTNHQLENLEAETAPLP
T1 sequence (P41145 whole entry): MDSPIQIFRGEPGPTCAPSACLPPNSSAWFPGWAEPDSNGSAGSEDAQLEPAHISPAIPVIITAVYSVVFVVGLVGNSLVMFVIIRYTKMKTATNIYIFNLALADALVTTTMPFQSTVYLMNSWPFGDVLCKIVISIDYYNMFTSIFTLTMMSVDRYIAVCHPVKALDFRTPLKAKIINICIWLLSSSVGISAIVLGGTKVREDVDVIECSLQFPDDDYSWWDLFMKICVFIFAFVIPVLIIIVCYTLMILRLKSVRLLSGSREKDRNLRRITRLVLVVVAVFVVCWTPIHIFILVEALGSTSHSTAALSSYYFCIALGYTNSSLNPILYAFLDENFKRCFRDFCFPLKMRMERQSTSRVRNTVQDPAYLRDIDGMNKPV

Compound: COc1nn(C)cc1C1CCCN1Cc1ccc(Oc2ccc(C(N)=O)c(O)c2)cc1 (single isomer, unassigned) [enantiomer of Example 33, 2-hydroxy-4-(4-{[2-(3-methoxy-1-methyl-1H-pyrazol-4-yl)pyrrolidin-1-yl]methyl}phenoxy)benzamide]
- Ki [1, 3]: 28.7 nM
- Ki [2, 4]: 308 nM

Compound: Cc1cc(C2CCCN2Cc2ccc(Oc3ccc(C(N)=O)cc3F)cc2)no1 (stereo not shown) [Example 40]
- KOR potency, in words [1]: low KOR potency
- Ki [1, 5]: 139 nM
- Ki [1, 6]: 139 nM
- Selectivity hMOR/hKOR [1]: 2.2
- Ki [2, 7]: 299 nM
- Ki [2, 8]: 299 nM

Compound: COc1cc(C2CCCN2Cc2ccc(Oc3ccc(C(N)=O)cc3)cc2)n(C)n1 (single isomer, unassigned) [enantiomer of Example 46, 4-(4-{[2-(3-methoxy-1-methyl-1H-pyrazol-5-yl)pyrrolidin-1-yl]methyl}phenoxy)benzamide]
- Ki [1, 3]: 111 nM
- Ki [2, 4]: 120 nM

Compound: COc1nn(C)cc1C1CCCN1Cc1ccc(Oc2ccc(C(N)=O)cc2)c(F)c1 (single isomer, unassigned) [Example 32, 4-(2-fluoro-4-{[2-(3-methoxy-1-methyl-1H-pyrazol-4-yl)pyrrolidin-1-yl]methyl}phenoxy)benzamide]
- Ki [1, 5]: 2.47 nM
- Ki [2, 7]: 112 nM

Compound: Cc1nn(C)nc1C1CCCN1Cc1ccc(Oc2ccc(C(N)=O)cc2)c(F)c1 (single isomer, unassigned) [Example 39, 4-(4-{[2-(2,5-dimethyl-2H-1,2,3-triazol-4-yl)pyrrolidin-1-yl]methyl}-2-fluorophenoxy)benzamide]
- Ki [1, 5]: 0.367 nM
- Ki [2, 7]: 40.9 nM

Compound: COc1nn(C)cc1C1COCCN1Cc1ccc(Oc2ccc(C(N)=O)cc2)c(F)c1 (single isomer, unassigned) [Example 22, 4-(2-fluoro-4-{[3-(3-methoxy-1-methyl-1H-pyrazol-4-yl)morpholin-4-yl]methyl}phenoxy)benzamide]
- Ki [1, 5]: 4.52 nM
- Ki [2, 7]: 95.1 nM

Compound: Cc1nn(C)cc1C1CCCN1Cc1ccc(Oc2ccc(C(N)=O)c(O)c2)cc1 (racemic) [Example 16, (+/−)-4-(4-{[2-(1,3-Dimethyl-1H-pyrazol-4-yl)pyrrolidin-1-yl]methyl}phenoxy)-2-hydroxybenzamide]
- Ki [1, 5]: 9.67 nM
- Ki [2, 7]: 159 nM

Compound: Cc1nsc(C2CCCN2Cc2ccc(Oc3ccc(C(N)=O)cc3)cc2)n1 (single isomer, unassigned) [enantiomer of Example 41, 4-(4-{[2-(3-methyl-1,2,4-thiadiazol-5-yl)pyrrolidin-1-yl]methyl}phenoxy)benzamide]
- Ki [1, 3]: > 388 nM
- Ki [2, 4]: > 558 nM

Compound: Cc1nn(C)cc1C1CCCN1Cc1ccc(Oc2ccc(C(N)=O)cc2)c(F)c1 (racemic) [Example 1, (+/−)-4-(4-{[2-(1,3-Dimethyl-1H-pyrazol-4-yl)pyrrolidin-1-yl]methyl}-2-fluorophenoxy) benzamide]
- Ki [1, 5]: 0.871 nM
- Ki [2, 7]: 20.2 nM

Compound: Cc1nn(C)cc1C1CC(F)CN1Cc1ccc(Oc2ccc(C(N)=O)cc2)cc1 (single isomer, unassigned) [Example 26, 4-(4-{[2-(1,3-dimethyl-1H-pyrazol-4-yl)-4-fluoropyrrolidin-1-yl]methyl}phenoxy) benzamide]
- Ki [1, 5]: 10.5 nM
- Ki [2, 7]: > 526 nM

Compound: COc1n[nH]cc1C1CCCN1Cc1ccc(Oc2ccc(C(N)=O)cc2)cc1 (single isomer, unassigned; (+)) [Example 15, (+)-4-(4-{[2-(3-Methoxy-1H-pyrazol-4-yl)pyrrolidin-1-yl]methyl}phenoxy)benzamide]
- Ki [1, 5]: 23.2 nM
- Ki [2, 7]: 150 nM

Compound: Cc1nc([C@@H]2CCCN2Cc2ccc(Oc3ccc(C(N)=O)cc3)cc2)ns1 [Example 10, 4-(4-{[(2S)-2-(5-Methyl-1,2,4-thiadiazol-3-yl)pyrrolidin-1-yl]methyl}phenoxy)benzamide]
- KOR potency, in words [1]: good potency
- selectivity for KOR over MOR, in words [1]: good potency and selectivity; also recorded: more selective than the phenyl examples, Comparators A and B
- Ki [1, 5]: 4 nM
- Ki [1, 6]: 4 nM
- Selectivity hMOR/hKOR [1]: 54
- Ki [2, 7]: 218 nM
- Ki [2, 8]: 218 nM

Compound: Cc1nn(C)c(C)c1C1CCCN1Cc1ccc(Oc2ccc(C(N)=O)cc2F)cc1 (racemic) [Example 37]
- selectivity for KOR over MOR (hMOR Ki divided by hKOR Ki) [1]: 0.9 fold
- Ki [1, 5]: 13.3 nM
- Ki [1, 6]: 13.3 nM
- Selectivity hMOR/hKOR [1]: 0.9
- Ki [2, 7]: 12.5 nM
- Ki [2, 8]: 12.5 nM

Compound: Cc1c(C2CCCN2Cc2ccc(Oc3ccc(C(N)=O)cc3F)cc2)cnn1C (single isomer, unassigned) [enantiomer of Example 35, 4-(4-{[2-(1,5-dimethyl-1H-pyrazol-4-yl)pyrrolidin-1-yl]methyl}phenoxy)-3-fluorobenzamide]
- Ki [1, 3]: 92.8 nM
- Ki [2, 4]: 245 nM

Compound: Cc1nn(C)nc1C1CCCN1Cc1ccc(Oc2ccc(C(N)=O)cc2)cc1 (single isomer, unassigned) [Example 38, 4-(4-{[2-(2,5-dimethyl-2H-1,2,3-triazol-4-yl)pyrrolidin-1-yl]methyl}phenoxy)benzamide]
- selectivity for KOR over MOR, in words [1]: more selective than the phenyl examples, Comparators A and B
- Ki [1, 5]: 0.688 nM
- Ki [1, 6]: 0.7 nM
- Selectivity hMOR/hKOR [1]: 168
- Ki [2, 7]: 116 nM
- Ki [2, 8]: 116 nM

Compound: COc1nn(C)cc1C1COCCN1Cc1ccc(Oc2ccc(C(N)=O)cc2F)cc1 (single isomer, unassigned) [enantiomer of Example 20, 3-fluoro-4-(4-{[3-(3-methoxy-1-methyl-1H-pyrazol-4-yl)morpholin-4-yl]methyl}phenoxy)benzamide]
- Ki [1, 3]: 145 nM
- Ki [2, 4]: > 564 nM

Compound: Cc1cc(C2CCCN2Cc2ccc(Oc3ccc(C(N)=O)cc3F)cc2)on1 (stereo not shown) [Example 42]
- KOR potency, in words [1]: low KOR potency
- Ki [1, 5]: 54.7 nM
- Ki [1, 6]: 54.7 nM
- Selectivity hMOR/hKOR [1]: 5.8
- Ki [2, 7]: 318 nM
- Ki [2, 8]: 318 nM

Compound: COc1nn(C)cc1C1CC(C)CN1Cc1ccc(Oc2ccc(C(N)=O)cc2F)cc1 (single isomer, unassigned) [Example 31, 3-fluoro-4-(4-{[2-(3-methoxy-1-methyl-1H-pyrazol-4-yl)-4-methylpyrrolidin-1-yl]methyl}phenoxy)benzamide]
- Ki [1, 5]: 4.99 nM
- Ki [2, 7]: 51.7 nM

Compound: Cc1c(C2CCCN2Cc2ccc(Oc3ccc(C(N)=O)cc3F)cc2)cnn1C (single isomer, unassigned) [Example 35, 4-(4-{[2-(1,5-dimethyl-1H-pyrazol-4-yl)pyrrolidin-1-yl]methyl}phenoxy)-3-fluorobenzamide]
- selectivity for KOR over MOR (hMOR Ki divided by hKOR Ki) [1]: 2.5 fold
- Ki [1, 5]: 2.9 nM
- Ki [1, 6]: 2.9 nM
- Selectivity hMOR/hKOR [1]: 6.4
- Ki [2, 7]: 18.4 nM
- Ki [2, 8]: 18.4 nM

Compound: Cc1nn(C)cc1C1CCCN1Cc1ccc(Oc2ccc(C(N)=O)c(O)c2)cc1 (single isomer, unassigned; (-)) [Example 18, (−)-4-(4-{[2-(1,3-Dimethyl-1H-pyrazol-4-yl)pyrrolidin-1-yl]methyl}phenoxy)-2-hydroxybenzamide]
- Ki [1, 5]: 1.76 nM
- Ki [2, 7]: 63.6 nM

Compound: COc1nn(C)cc1C1CCCN1Cc1ccc(Oc2ccc(C(N)=O)c(O)c2)cc1 (single isomer, unassigned) [Example 33, 2-hydroxy-4-(4-{[2-(3-methoxy-1-methyl-1H-pyrazol-4-yl)pyrrolidin-1-yl]methyl}phenoxy)benzamide]
- Ki [1, 5]: 1.69 nM
- Ki [2, 7]: 52.2 nM
